Data from patent US20230123334A1, “AMINO LIPID COMPOUND, PREPARATION METHOD THEREFOR, AND APPLICATION THEREOF” (SHENZHEN SHENXIN BIOTECHNOLOGY CO., LTD., priority 2020, published 2023).

system: HEK293 cells; experiment: Preliminary screening as DNA vectors, GFP transfection of HEK293 cells; type: cell-based; conditions: HEK293 cells; lipid/DOPE liposome with 75 ng plasmid DNA (psin-EGFP-IRES-Puro); number of cells expressing GFP divided by total number of nuclei (Hoechst)
Method in brief: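 HEK293 cells in DMEM/10% FBS transfected with 75 ng EGFP plasmid per well complexed with amino lipid/DOPE liposomes in pH 5.6 sodium acetate. Hoechst nuclear stain added 20-24 h post-transfection, then cells cultured another 20-24 h. Confocal imaging gives GFP-positive cells as % of total nuclei.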

For `CCCCCCCCCCCCN(CCCCCCCCCCCC)c1nc(NCCCCCCCCCCC)nc(NCCCN2CCN(C)CC2)n1` [Compound N112N12D9], the “Absolute DNA transfection efficiency in HEK293 cells” value (“Absolute DNA transfection efficiency” for short) was 0.1%.

same assay, conditions: amino lipid/DOPE liposome with 75 ng plasmid DNA (psin-EGFP-IRES-Puro); number of GFP-expressing cells divided by total nuclei (Hoechst)

Going from `CCCCCCCCNc1nc(NCCN(C)C)nc(SCCCCCCC)n1` [S7N8 D1] to `CCCCCCCCNc1nc(NCCCN(C)C)nc(SCCCCCC)n1` [S6N8 D6], the “Absolute DNA transfection efficiency” value falls from 15.6% to 0.6%.

Going from `CCCCCCCCCCCCNc1nc(NCC2CCN(C)CC2)nc(SCCCCCCCCCCC)n1` [S11N12 D10] to `CCCCCCCCCCCCNc1nc(NCC2CCN(C)CC2)nc(SCCCCCCCCCCCC)n1` [S12N12 D10], the “Absolute DNA transfection efficiency” value rises from 4.7% to 9.3%.

First: CCCCCCCCCCCCCCCCCCSc1nc(NCCCCCCC)nc(NCC2CCN(C)CC2)n1 [S18N7 D10]
Second: CCCCCCCCCCCCCCCCSc1nc(NCCCCCCCCCCC)nc(NCC2CCN(C)CC2)n1 [S16N11 D10]
The “Absolute DNA transfection efficiency” value of the first is higher: 13.5% for the first, 0.0% for the second.

Going from `CCCCCCCCCCCCCCCCCCNc1nc(NCCCN2CCN(C)CC2)nc(SCCCCCCCCCCC)n1` [S11N18 D9] to `CCCCCCCCCCCCCCCCSc1nc(NCCCCCCCCCCCCCCC)nc(NCCN2CCN(C)CC2)n1` [S16N15 D5], the “Absolute DNA transfection efficiency” value falls from 9.3% to 0.3%.

`CCCCCCCCCCCCN(CCCCCCCCCCCC)c1nc(NCCN2CCOCC2)nc(SCCCCCCC)n1` [S7^2N12 D2] and `CCCCCCCCCCCCN(CCCCCCCCCCCC)c1nc(NCCCN2CCOCC2)nc(SCCCCCCCCCC)n1` [S10^2N12 D8] are the same in “Absolute DNA transfection efficiency” value: 0.0% for the first, 0.0% for the second.

Compared with `CCCCCCCCCCCCN(CCCCCCCCCCCC)c1nc(NCCN(C)C)nc(SCCCCCCC)n1` [S7^2N12 D1], `CCCCCCCCCCCCN(CCCCCCCCCCCC)c1nc(NCCN(C)C)nc(SCCCCCCCCCCC)n1` [S11^2N12 D1] is lower in “Absolute DNA transfection efficiency” value: 0.2% for the first, 0.0% for the second.

Going from `CCCCCCCCCCCSc1nc(NCCCCCCC)nc(NCCN2CCCCC2)n1` [S11N7 D4] to `CCCCCCCCCCCSc1nc(NCCCCCCCC)nc(NCCN2CCCCC2)n1` [S11N8 D4], the “Absolute DNA transfection efficiency” value rises from 4.6% to 5.9%.

Compared with `CCCCCCCCSc1nc(NCCN2CCCCC2)nc(SCCCCCCCC)n1` [S8S8 D4], `CCCCCCCCCSc1nc(NCCN2CCCCC2)nc(SCCCCCC)n1` [S6S9 D4] is lower in “Absolute DNA transfection efficiency” value: 11.2% for the first, 1.8% for the second.

Compared with `CCCCCCCCCCSc1nc(NCCCCCCC)nc(NCCN2CCCCC2)n1` [S10N7 D4], `CCCCCCCCCSc1nc(NCCCCCCCC)nc(NCCN2CCCCC2)n1` [S9N8 D4] is higher in “Absolute DNA transfection efficiency” value: 3.6% for the first, 27.3% for the second.

Going from `CCCCCCCCCCCCCCCCNc1nc(NCCN(CC)CC)nc(SCCCCCCCCCCCCCCC)n1` [S15N16 D7] to `CCCCCCCCCCCCCCCCSc1nc(NCCCCCCCCCCC)nc(NCCN(CC)CC)n1` [S16N11 D7], the “Absolute DNA transfection efficiency” value rises from 0.4% to 15.5%.

First: CCCCCCCCCCCCCCCCCCSc1nc(NCCCN2CCN(C)CC2)nc(N(CCCCCCCCCCCC)CCCCCCCCCCCC)n1 [S18^2N12 D9]
Second: CCCCCCCCCCCCN(CCCCCCCCCCCC)c1nc(NCCCN2CCN(C)CC2)nc(SCCCCCCCCCC)n1 [S10^2N12 D9]
The “Absolute DNA transfection efficiency” value of the first is lower: 0.0% for the first, 0.5% for the second.

Going from `CCCCCCCCCNc1nc(NCCN2CCCC2)nc(SCCCCCC)n1` [S6N9 D3] to `CCCCCCCCCCCSc1nc(NCCCCCCC)nc(NCCN2CCCC2)n1` [S11N7 D3], the “Absolute DNA transfection efficiency” value rises from 0.4% to 19.4%.

First: CCCCCCCCCCCCCNc1nc(NCC2CCN(C)CC2)nc(SCCCCCCC)n1 [S7N13 D10]
Second: CCCCCCCCCCCNc1nc(NCC2CCN(C)CC2)nc(SCCCCCCCCCC)n1 [S10N11 D10]
The “Absolute DNA transfection efficiency” value of the first is higher: 54.2% for the first, 5.4% for the second.

Going from `CCCCCCCCCCCCSc1nc(NCCN2CCN(C)CC2)nc(SCCCCCC)n1` [S6S12 D5] to `CCCCCCCCSc1nc(NCCN2CCN(C)CC2)nc(SCCCCCC)n1` [S6S8 D5], the “Absolute DNA transfection efficiency” value falls from 28.8% to 15.3%.

First: CCCCCCCCCCSc1nc(NCCN2CCOCC2)nc(SCCCCCCCC)n1 [S8S10 D2]
Second: CCCCCCCCCSc1nc(NCCN2CCOCC2)nc(SCCCCCC)n1 [S6S9 D2]
The “Absolute DNA transfection efficiency” value of the first is higher: 18.8% for the first, 9.1% for the second.

Compared with `CCCCCCCCCCCNc1nc(NCCN2CCCC2)nc(SCCCCCCCCCCC)n1` [S11N11 D3], `CCCCCCCCCCCCCCCNc1nc(NCCN2CCCC2)nc(SCCCCCCCC)n1` [S8N15 D3] is lower in “Absolute DNA transfection efficiency” value: 23.4% for the first, 9.9% for the second.

Compared with `CCCCCCCCCCCCCCCCSc1nc(NCCCCCCCCCCCC)nc(NCC2CCN(C)CC2)n1` [S16N12 D10], `CCCCCCCCCCCCCCCCCCSc1nc(NCCCCCCCCCCCCCCCC)nc(NCC2CCN(C)CC2)n1` [S18N16 D10] is lower in “Absolute DNA transfection efficiency” value: 2.1% for the first, 0.1% for the second.

Compared with `CCCCCCCCCCCCCCSc1nc(NCCN(C)C)nc(SCCCCCC)n1` [S6S14 D1], `CCCCCCCCCCCCSc1nc(NCCCCCCCC)nc(NCCN(C)C)n1` [S12N8 D1] is lower in “Absolute DNA transfection efficiency” value: 8.3% for the first, 6.0% for the second.

Compared with `CCCCCCCCCCCCN(CCCCCCCCCCCC)c1nc(NCC2CCN(C)CC2)nc(SCCCCCCCCCC)n1` [S10^2N12 D10], `CCCCCCCCCCCCCCCSc1nc(NCCCN2CCOCC2)nc(N(CCCCCCCCCCCC)CCCCCCCCCCCC)n1` [S15^2N12 D8] is lower in “Absolute DNA transfection efficiency” value: 3.3% for the first, 0.0% for the second.

First: CCCCCCCCCCCCCCCSc1nc(NCCCCCCC)nc(NCCCN2CCOCC2)n1 [S15N7 D8]
Second: CCCCCCCCCCCCCCSc1nc(NCCCCCCCCC)nc(NCCCN2CCOCC2)n1 [S14N9 D8]
The “Absolute DNA transfection efficiency” value of the first is higher: 14.5% for the first, 10.7% for the second.

Going from `CCCCCCCCCCCCCCCCSc1nc(NCCCCCCCCC)nc(NCCN2CCCC2)n1` [S16N9 D3] to `CCCCCCCCCCCCSc1nc(NCCCCCCCCCCC)nc(NCCN2CCCCC2)n1` [S12N11 D4], the “Absolute DNA transfection efficiency” value falls from 13.7% to 1.0%.

Going from `CCCCCCCCCCCCCCCCNc1nc(NCCCN(C)C)nc(SCCCCCC)n1` [S6N16 D6] to `CCCCCCCCCCCCCCCCCCNc1nc(NCCCN(C)C)nc(SCCCCCCCCCCCC)n1` [S12N18 D6], the “Absolute DNA transfection efficiency” value falls from 22.8% to 0.6%.

Going from `CCCCCCCCCCCNc1nc(NCCN2CCCC2)nc(SCCCCCCCC)n1` [S8N11 D3] to `CCCCCCCCCCCNc1nc(NCCN2CCCC2)nc(SCCCCCCCCCC)n1` [S10N11 D3], the “Absolute DNA transfection efficiency” value falls from 52.0% to 12.6%.

Compared with `CCCCCCCCCNc1nc(NCCCN2CCN(C)CC2)nc(SCCCCCCCCC)n1` [S9N9 D9], `CCCCCCCCCSc1nc(NCCCCCCCC)nc(NCCN2CCN(C)CC2)n1` [S9N8 D5] is lower in “Absolute DNA transfection efficiency” value: 50.7% for the first, 30.3% for the second.

Compared with `CCCCCCCCCCCCCCCSc1nc(NCCN2CCCC2)nc(SCCCCCC)n1` [S6S15 D3], `CCCCCCCCCCCSc1nc(NCCCN2CCOCC2)nc(SCCCCCCCC)n1` [S8S11 D8] is higher in “Absolute DNA transfection efficiency” value: 14.5% for the first, 15.3% for the second.

Compared with `CCCCCCCCCSc1nc(NCCN(CC)CC)nc(SCCCCCC)n1` [S6S9 D7], `CCCCCCNc1nc(NCCN(CC)CC)nc(SCCCCCC)n1` [S6N6 D7] is lower in “Absolute DNA transfection efficiency” value: 10.2% for the first, 0.0% for the second.

`CCCCCCCCCCCCCCCCCCNc1nc(NCCN(CC)CC)nc(SCCCCCCCCCCCCCCCCCC)n1` [S18N18 D7] and `CCCCCCCCCCCCCCCCCCSc1nc(NCCCCCCCCCCCCCCCC)nc(NCCCN(C)C)n1` [S18N16 D6] are the same in “Absolute DNA transfection efficiency” value: 0.0% for the first, 0.0% for the second.

First: CCCCCCCCSc1nc(NCCCCCC)nc(NCCN2CCN(C)CC2)n1 [S8N6 D5]
Second: CCCCCCCCCCSc1nc(NCCCCCC)nc(NCCN2CCN(C)CC2)n1 [S10N6 D5]
The “Absolute DNA transfection efficiency” value of the first is lower: 5.0% for the first, 7.0% for the second.

Going from `CCCCCCCCCCCSc1nc(NCC2CCN(C)CC2)nc(SCCCCCCC)n1` [S7S11 D10] to `CCCCCCCCCCCCCCSc1nc(NCCCCCCCC)nc(NCC2CCN(C)CC2)n1` [S14N8 D10], the “Absolute DNA transfection efficiency” value falls from 39.1% to 26.2%.

Compared with `CCCCCCCCCCCCCCCCNc1nc(NCCCN2CCOCC2)nc(SCCCCCCCC)n1` [S8N16 D8], `CCCCCCCCCCCCCNc1nc(NCCN2CCOCC2)nc(SCCCCCCCCCCCC)n1` [S12N13 D2] is lower in “Absolute DNA transfection efficiency” value: 8.2% for the first, 0.0% for the second.

Going from `CCCCCCCCCCCCCCCCCCNc1nc(NCCN2CCN(C)CC2)nc(SCCCCCCCCCCCCCCC)n1` [S15N18 D5] to `CCCCCCCCCCCCCCCCSc1nc(NCCCCCCCCCCCCCCC)nc(NCCN2CCOCC2)n1` [S16N15 D2], the “Absolute DNA transfection efficiency” value falls from 0.3% to 0.0%.

`CCCCCCCCCCCCCCCCSc1nc(NCCCCCCCCCCCC)nc(NCCCN2CCOCC2)n1` [S16N12 D8] and `CCCCCCCCCCCCCCCSc1nc(NCCCCCCCCCCCCC)nc(NCCN2CCCCC2)n1` [S15N13 D4] are the same in “Absolute DNA transfection efficiency” value: 0.0% for the first, 0.0% for the second.

First: CCCCCCCCCCCNc1nc(NCCN2CCN(C)CC2)nc(SCCCCCCCCCCC)n1 [S11N11 D5]
Second: CCCCCCCCCCCCCNc1nc(NCCN2CCCCC2)nc(SCCCCCCCCCC)n1 [S10N13 D4]
The “Absolute DNA transfection efficiency” value of the first is higher: 10.1% for the first, 4.2% for the second.

First: CCCCCCCSc1nc(NCCN2CCCC2)nc(SCCCCCC)n1 [S6S7 D3]
Second: CCCCCCCCCCCNc1nc(NCCN2CCOCC2)nc(SCCCCCCCCC)n1 [S9N11 D2]
The “Absolute DNA transfection efficiency” value of the first is lower: 1.4% for the first, 16.2% for the second.

In the case of `CCCCCCCCCCCCCCCSc1nc(NCCCN(C)C)nc(N(CCCCCCCCCCCC)CCCCCCCCCCCC)n1` [S15^2N12 D6], the “Absolute DNA transfection efficiency” value is reported as 0.0%.
